Results on one cell line are retold here after the supplement of paper PMC10307832.

What all share (experiment): relative viability (nuclei count vs DMSO), 5 days (fraction); higher = more cells survive
Compound in one test: CC1=C(CC(=O)O)c2cc(F)ccc2/C1=C\c1ccc([S+](C)[O-])cc1 [Sulindac]
The gist of the method:
(§1)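 Vehicle-anchored 1536-well plates of lung cancer cell lines, held overnight at 37 °C, were pinned with five library-drug doses (not always all listed) spaced by √10. No medium change followed over the next 5 days, after which the cells were fixed, permeabilised and Hoechst-stained together and imaged at 4×. Nuclei were counted with MetaXpress, and viability is treated-well nuclei over vehicle-well nuclei, taken as a median across plates. Plates passed with control CV below 25% and at least one doubling.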

Compound in the next test: CN[C@@H]1C[C@H]2O[C@@](C)([C@@H]1OC)n1c3ccccc3c3c4c(c5c6ccccc6n2c5c31)C(=O)NC4 [Staurosporine]
The procedure, abridged: as §1

Compound in another test: O=c1[nH]cc(F)c(=O)[nH]1 [5-Fluorouracil]
The gist of the method: as §1

Compound in test [1]: O=c1[nH]cc(F)c(=O)[nH]1 [5-Fluorouracil] + N=C(N)NC(=N)NCCc1ccccc1 [Phenformin] (partner 250 µM)
The procedure, abridged: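 Lung cancer cell lines were seeded in 1536-well plates and dosed by pin tool the next day, with either a single drug or a fixed anchor-drug dose combined with five library-drug doses (not always all listed) spaced in √10 steps. Five days later, one step fixed the cells and stained their nuclei (final 0.05% Triton X-100, 1% formaldehyde, 1 ug/ml Hoechst), and nuclei were counted on 4× images. Relative viability is the nuclei count in treated wells divided by the count in vehicle wells, and each value is the median of duplicate plates.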

On to UMC-11, for which the relative viability is 1.14 with Sulindac (0.08 µM); 1.01 with Sulindac (0.253 µM); 0.824 with Sulindac (0.8 µM); 0.869 in the test with Sulindac (2.53 µM); 1.11 with Sulindac (8 µM); 0.977 with Staurosporine (0.005 µM). Besides, the relative viability with Staurosporine (0.01581 µM) amounted to 0.328; with Staurosporine (0.05 µM), 0.295; with Staurosporine (0.1581 µM), 0.123; with Staurosporine (0.5 µM), 0.0871; in the test with 5-Fluorouracil (0.02 µM), 0.952; with 5-Fluorouracil (0.2 µM), 0.783. In addition, the relative viability with 5-Fluorouracil (0.6325 µM) amounted to 0.519; in test [1] (first compound 0.02 µM), 0.368; in test [1] (first compound 0.2 µM), 0.308; in test [1] (first compound 0.6325 µM), 0.326; in test [1] (first compound 2 µM), 0.339.
